Source: PMC10301432, “Antiplasmodial, Trypanocidal, and Genotoxicity In Vitro Assessment of New Hybrid α,α-Difluorophenylacetamide-statin Derivatives” (Pharmaceuticals, 2023)
Read-outs that look alike come from different tables or passages of the source.

What was measured:
in vitro [1] = type: cell-based; conditions: human
Protocol: Human hepatocellular carcinoma (HepG2) and Chinese Hamster Ovary (CHO-K1) cells obtained from the American Type Culture Collection (Manassas, VA, USA) were cultured in Eagle’s medium (MEM, Gibco®, Waltham, MA, USA) containing 10% fetal bovine serum (FBS) plus 100 µg/mL streptomycin and 100 µg/mL penicillin at 37 °C in a 5% CO2 atmosphere. Logarithmic-phase cells were used in all the experiments.
Fresh HepG2 and CHO-K1 cells were seeded at a density of 1 × 10^4/well. […] Briefly, after treatment, the culture medium was replaced by 90 μL fresh culture medium and 10 μL WST-1 reagent and incubated at 37 °C and 5% CO2 for 3 h. The absorbance was then measured at 440 nm according to the kit protocol.

in vitro [2] = type: cell-based; conditions: mouse
Protocol: Primary cultures of cardiac cells (CC) were obtained as reported in [50]. The cultures were sustained in Dulbecco’s modified Eagle’s medium (DMEM) supplemented with 10% horse serum, 5% fetal bovine serum (FBS), 2.5 mM CaCl2, 1 mM L-glutamine, and 2% chicken embryo extract. Cell cultures were maintained at 37 °C in an atmosphere of 5% CO2, and assays were run at least three times in triplicate.
Cardiac cell cultures were incubated for 24 h at 37 °C with different concentrations of the compounds (up to 200 µM) diluted in DMEM (without phenol red). Their morphology and spontaneous contractibility were evaluated by light microscopy and then the cellular viability was determined by the PrestoBlue® assay. For this colorimetric bioassay, PrestoBlue® (Invitrogen, Waltham, MA, USA) was added to each well (using a 10:1 medium/dye), the plate was further incubated for 24 h followed by optical density (OD) measurement performed at 570 and 600 nm, as recommended by the manufacturer.

[3] = tested on: intracellular forms of T. cruzi (Tulahuen strain transfected with β-galactosidase); assay: Activity against intracellular T. cruzi in L929 cells; type: cell-based, Trypanosoma cruzi; conditions: for EC50: intracellular forms, Tulahuen strain; for EC50 / 10µM (% of Parasite Lysis): 96 h; for 10µM (% of Parasite Lysis): fixed concentration 10 µM; for SI: LC50 (L929)/EC50 (intracellular forms)
Protocol: Tissue culture-derived trypomastigotes (Tulahuen strain expressing the E. coli β-galactosidase gene) were maintained in L929 cell lines and collected from the supernatant after 96 h of parasite infection, following previously established protocols. Briefly, after 24 h of L929 platting (4 × 10^3 cells/well), the cultures were incubated with trypomastigotes (10:1 parasite/host cell ratio) for 2 h at 37 °C. Then, the cell cultures were rinsed to remove non-internalized parasites and then further incubated for 24 h at 37 °C. Then the infected cultures were followed using two sequential protocols. […] After this period, 50 µL chlorophenol red glycoside (500 µM) in 0.5% Nonidet P40 was added to each well and the plate was incubated for more than 18 h at 37 °C, after which the absorbance was measured at 570 nm. […] Controls with untreated and Bz-treated cells are run in parallel. The results were expressed as the percent difference in the reduction between treated and untreated cells.

CHO-K1 cells = type: cell-based, Chinese Hamster
Protocol: (§1) Fresh HepG2 and CHO-K1 cells were seeded at the density of 1 × 10^5 cells/mL into 24-well plates (1 mL/per well). The compounds 13 (a–d) were then added to the medium to final concentrations of 500, 1000 and 2000 µM and incubation continued for 3 h or 24 h. DMSO 10% was used as the negative control, and, BaP (80 µM) for HepG2 and MMC (5 µM) for CHO-K1 were the positive controls. After exposure to the compounds, the cells were incubated for more than 24 h under growth conditions before quantification of the micronuclei and cytotoxicity. The cytogenetic studies were carried out in triplicate as described previously (see [51]). In order to determine the mitotic index and the number of cells with micronuclei, the medium was replaced by a cold methanol-glacial acetic acid (3:1) fixative for 30 min, and the cells then rinsed with distilled water for 2 min and air dried. The fixed cells were stained with 4,6-diamidino-2-phenylindole (DAPI) ([…]) dissolved in McIlvaine buffer (0.1 M citric acid plus 0.2 M Na2HPO4, pH 7.0) for 60 min, washed with McIlvaine buffer for 5 min, briefly rinsed with distilled water and mounted in glycerol. To determine the mitotic index and the number of cells with micronuclei, 1000 cells per well (3000 cells per concentration) were analyzed under a fluorescence microscope. The results for micronuclei were presented as the percentage of cells containing micronuclei in the 3000 cells/concentration group analyzed. Cells that glowed brightly and had homogenous nuclei were considered as having normal phenotypic morphology. Apoptotic nuclei were identified by the condensed chromatin at the periphery of the nuclear membrane or by fragmented nuclear body morphology. Necrotic cells presented chromatin forms with irregularly shaped aggregates, a pyknotic nucleus (shrunken and darkly stained) and cell membrane disruption, with cellular debris spilled into the extracellular milieu. Once again, 3000 cells were counted and the percentage of viable cells was evaluated, discounting apoptotic and necrotic cells. Statistical differences between the groups were analyzed by two-way ANOVA (p < 0.01) and Tukey’s post hoc test.

[4] = tested on: CHO-K1 and HepG2 cell lineages; type: cell-based
Protocol: as §1, with “Necrotic cells presented chromatin forms with irregularly shaped aggregates, a pyknotic nucleus (shrunken and darkly stained) and cell membrane disruption, with cellular debris spilled into the extracellular milieu.” left out

[5] = tested on: Salmonella enterica serovar Typhimurium TA102
in vitro [6] = conditions: Salmonella enterica serovar Typhimurium, pH 7.4
[7] = tested on: Salmonella enterica serovar Typhimurium TA100; assay: Salmonella/microsome assay, TA100
[8] = tested on: S. typhimurium TA97, TA98, TA100, TA102 and TA104 strains; assay: Salmonella/microsome assay, overall outcome; conditions: all strains, −S9 and +S9; summarized outcome
Protocol: The mutagenicity reverse mutation test was carried out to investigate the potential of 13 (a–d) to induce genetic mutation in S. typhimurium TA97, TA98, TA100, TA102 and TA104 strains. The test was carried out according to the pre-incubation method, both in the absence and presence of a metabolic activation system (4% S9 mix, Aroclor-pre-induced, from Moltox Inc., Boone, NC, USA). DMSO 10% served as the negative control while known mutagens were used as the positive control substances. […] A dose-finding test was carried out with and without the metabolic activation system (S9 mix) for each tester strain.
For the assays without metabolic activation, 0.5 mL of 0.1 mol/L sodium-phosphate buffer (pH 7.4) was added, and for the assays in the presence of metabolic activation, 0.5 mL S9 mix was mixed with 0.1 mL culture medium (2 × 10^8 cells/mL) plus 0.1 mL of each compound solutions. The mixtures were incubated in a shaker at 37 °C (pre-incubation). After 30 min pre-incubation under light protection, the mixture was added to and mixed with 2 mL top agar containing 0.05 mmol/L L-histidine and D-biotin for the S. typhimurium strains. Each of these was then spread on a minimum glucose agar plate. After the top agar solidified, the plates were incubated at 37 °C for 60–72 h. Each tester strain was assayed in triplicate, and the number of revertant colonies was counted for each tester strain and treatment group [58].

[9] = Trypanosoma cruzi, TULAHUEN, L929, 96 h

SMILES	CC50 at 24 h (in vitro [1])	CC50 at 24 h (in vitro [2])	EC50 [3, 9]	revertant His+ colonies TA102 ([5]; +S9, 3 µM)	revertant His+ colonies TA102 ([5]; +S9, 15 µM)	revertant His+ colonies TA102 ([5]; +S9, 30 µM)	revertant His+ colonies TA102 ([5]; +S9, 150 µM)	revertant His+ colonies TA102 ([5]; +S9, 300 µM)	revertant His+ colonies TA102 ([5]; +S9, 1500 µM)	revertant His+ colonies TA102 ([5]; −S9, 3 µM)	revertant His+ colonies TA102 ([5]; −S9, 15 µM)	revertant His+ colonies TA100 ([7]; +S9, 3 µM)	revertant His+ colonies TA100 ([7]; +S9, 15 µM)	revertant His+ colonies TA100 ([7]; +S9, 30 µM)	revertant His+ colonies TA100 ([7]; +S9, 150 µM)	revertant His+ colonies TA100 ([7]; +S9, 300 µM)	revertant His+ colonies TA100 ([7]; +S9, 1500 µM)	revertant His+ colonies TA100 ([7]; −S9, 3 µM)	revertant His+ colonies TA100 ([7]; −S9, 15 µM)	revertant His+ colonies TA100 ([7]; −S9, 30 µM)	also measured
CC(=O)Nc1ccccc1C(F)(F)C(=O)NCC[C@@H]1C[C@H](CC(=O)OC(C)(C)C)OC(C)(C)O1 [Compound 13a, tert-Butyl 2-((4R,6R)-6-(2-(2-(2-acetamidophenyl)-2,2-difluoroacetamido)ethyl)-2,2-dimethyl-1,3-dioxan-4-yl)acetate]	> 1000 µM	> 500 µM	≥ 50 µM	384 ± 32	399 ± 32	407 ± 21	411 ± 46	448 ± 52	501 ± 20	458 ± 19	435 ± 22	211 ± 37	223 ± 15	241 ± 36	244 ± 14	270 ± 45	290 ± 31	117 ± 43	136 ± 13	139 ± 13	10µM (% of Parasite Lysis) [3]: 17.92 ± 11.02%; EC50 [3]: > 50 µM; micronuclei formation (genotoxicity) (CHO-K1 cells): genotoxic; Mammalian Cell Genotoxicity [4]: Yes; revertant His+ colonies TA102 ([5]; −S9, 30 µM): 433 ± 7; revertant His+ colonies TA102 ([5]; −S9, 150 µM): 380 ± 12; revertant His+ colonies TA102 ([5]; −S9, 300 µM): 345 ± 48; revertant His+ colonies TA102 ([5]; −S9, 1500 µM): Cytotoxic; CC50 (in vitro [6]): 1480 ± 56.1 µM; revertant His+ colonies TA100 ([7]; −S9, 150 µM): 142 ± 5; revertant His+ colonies TA100 ([7]; −S9, 300 µM): 162 ± 37; revertant His+ colonies TA100 ([7]; −S9, 1500 µM): 179 ± 34; Bacterial Mutagenicity [8]: Yes
CC(=O)Nc1ccc(C)cc1C(F)(F)C(=O)NCC[C@@H]1C[C@H](CC(=O)OC(C)(C)C)OC(C)(C)O1 [Compound 13b, tert-Butyl 2-((4R,6R)-6-(2-(2-(2-acetamido-5-methylphenyl)-2,2-difluoroacetamido)ethyl)-2,2-dimethyl-1,3-dioxan-4-yl)acetate]	> 1000 µM	> 500 µM	≥ 50 µM	365 ± 37	386 ± 42	403 ± 19	396 ± 31	372 ± 40	399 ± 18	388 ± 20	393 ± 18	179 ± 38	188 ± 23	228 ± 46	260 ± 32	306 ± 60	333 ± 45	145 ± 11	146 ± 1	145 ± 17	10µM (% of Parasite Lysis) [3]: 25.41 ± 10.90%; EC50 [3]: > 50 µM; mitotic index (CHO-K1 cells): did not affect the mitotic index; Mammalian Cell Genotoxicity [4]: Yes; revertant His+ colonies TA102 ([5]; −S9, 30 µM): 423 ± 11; revertant His+ colonies TA102 ([5]; −S9, 150 µM): 503 ± 23; revertant His+ colonies TA102 ([5]; −S9, 300 µM): 543 ± 39; revertant His+ colonies TA102 ([5]; −S9, 1500 µM): 560 ± 41; CC50 (in vitro [6]): > 1500 µM; revertant His+ colonies TA100 ([7]; −S9, 150 µM): 143 ± 40; revertant His+ colonies TA100 ([7]; −S9, 300 µM): 144 ± 8; revertant His+ colonies TA100 ([7]; −S9, 1500 µM): 178 ± 10; Bacterial Mutagenicity [8]: not mutagenic and no mutagenic potential and No
CC(=O)Nc1ccc(Cl)cc1C(F)(F)C(=O)NCC[C@@H]1C[C@H](CC(=O)OC(C)(C)C)OC(C)(C)O1 [Compound 13c, tert-Butyl 2-((4R,6R)-6-(2-(2-(2-acetamido-5-chlorophenyl)-2,2-difluoroacetamido)ethyl)-2,2-dimethyl-1,3-dioxan-4-yl)acetate]	> 1000 µM	> 500 µM	9.24 ± 1.06 µM	392 ± 8	390 ± 12	402 ± 24	401 ± 66	403 ± 12	430 ± 14	373 ± 50	386 ± 35	223 ± 39	223 ± 47	228 ± 17	278 ± 5	286 ± 18	300 ± 15	135 ± 38	135 ± 21	135 ± 30	SI [3]: 16.7; mitotic index (CHO-K1 cells): did not affect the mitotic index; revertant His+ colonies TA102 ([5]; −S9, 30 µM): 387 ± 33; revertant His+ colonies TA102 ([5]; −S9, 150 µM): 386 ± 5; revertant His+ colonies TA102 ([5]; −S9, 300 µM): 400 ± 24; revertant His+ colonies TA102 ([5]; −S9, 1500 µM): 450 ± 32; revertant His+ colonies TA100 ([7]; −S9, 150 µM): 140 ± 31; revertant His+ colonies TA100 ([7]; −S9, 300 µM): 164 ± 17; revertant His+ colonies TA100 ([7]; −S9, 1500 µM): 168 ± 15; Bacterial Mutagenicity [8]: not mutagenic and No
CC(=O)Nc1ccc(Br)cc1C(F)(F)C(=O)NCC[C@@H]1C[C@H](CC(=O)OC(C)(C)C)OC(C)(C)O1 [Compound 13d, tert-Butyl 2-((4R,6R)-6-(2-(2-(2-acetamido-5-bromophenyl)-2,2-difluoroacetamido)ethyl)-2,2-dimethyl-1,3-dioxan-4-yl)acetate]	> 1000 µM	> 500 µM	11.4 ± 3.29 µM	153 ± 13	155 ± 20	160 ± 11	162 ± 31	176 ± 11	Cytotoxic	356 ± 7	Cytotoxic	156 ± 18	166 ± 11	173 ± 1	174 ± 21	181 ± 15	Cytotoxic	99 ± 4	96 ± 12	93 ± 1	SI [3]: 10; micronuclei formation (genotoxicity) (CHO-K1 cells): induced genotoxicity; Mammalian Cell Genotoxicity [4]: Yes; CC50 (in vitro [6]): 14.7 ± 1.8 µM; revertant His+ colonies TA100 ([7]; −S9, 150 µM): Cytotoxic; Bacterial Mutagenicity [8]: Yes
